Experimental data from US6652853B2, “Method for treating cancer using A33 specific antibodies and chemotherapeutic agents” (Ludwig Institute for Cancer Research, priority 2001, dated 2003).

Tested on: cell cultures (cancer cells)
Test: Cytotoxic effects in cell cultures, QFA, calicheamicin and huA33 conjugates
Settings: added to cell cultures

calicheamicin
cytotoxic effects in vitro: weak cytotoxic effects
